Laboratory results reported in patent publication US10342758B2, “Cationic lipid” (Kyowa Hakko Kirin Co., Ltd., priority 2012, dated 2019).

Assays:
[1] = Average particle diameter of preparation (Zetasizer Nano ZS); assay type: physicochemical; details: preparation with apo-b siRNA; compound/PEG-DMPE Na/DSPC/cholesterol; Example 49 / Comparative Example 1
apo-b gene mRNA = experiment: Expression ratio of apo-b mRNA after introduction of preparations into HepG2 cells; assay type: cell-based, human; details: nucleic acid 3 to 100 nM, 24 hours, composition with apo-b siRNA (FIG. 1)
Description: Each of the preparation: obtained in Example 49 (the compositions containing any of Compounds A-1, and A-3 to A-5, and the nucleic acid) and the preparations obtained in Comparative Example 1 (the compositions containing any of DLin-KC2-DMA and Compounds XI-1 to XI-3, and the nucleic acid) was introduced into cells of human liver cancer-derived cell line HepG2 (HB-8065) by the following method.
Each preparation diluted with Opti-MEM (GIBCO Co., Ltd., 31985) so that the final concentration of the nucleic acid was 3 to 100 nM was dispensed in a 96-well culture plate at 20 μL/well. […]
By using the obtained cDNA as a template and also using a universal probe library (Roche Applied Science, Inc., 04683633001) as the probe and ABI7900HT Fast (manufactured by ABI, Inc.), a PCR reaction was performed according to the method described in the protocol attached thereto, so that the apo-b gene and D-glyceraldehyde-3-phosphate dehydrogenase (hereinafter, represented by “gapdh”) gene, which is a constitutively expressed gene, were subjected to the PCR reaction. Then, the amount of the amplified mRNA was measured for each gene, and a quasi-quantitative value of the apo-b mRNA was calculated using the amount of the amplified gapdh mRNA as the internal control. […]

[2] = Average particle diameter of preparation (Zetasizer Nano ZS); assay type: physicochemical; details: preparation with f7 siRNA
Procedure: The average particle diameter of each preparation (composition) was measured using a particle diameter measurement device (Zetasizer Nano ZS, manufactured by Malvern, hereafter the same).
The average particle diameter of each preparation (composition) was measured using a particle diameter measurement device.
Each sample was weighed and suspended in an aqueous solution containing hydrochloric acid and ethanol so that the ratio of Compound A-1/PEG-DMPE Na (manufactured by NOF Corporation) was 57.3/5.52 mmol/L, and then, the resulting mixture was repeatedly subjected to stirring using a vortex stirring mixer and heating, whereby a uniform suspension was obtained. This suspension was passed through a 0.2-μm polycarbonate membrane filter and thereafter passed through a 0.05-μm polycarbonate membrane filter at room temperature, whereby a dispersion liquid of particles (liposome) of Compound A-1/PEG-DMPE Na was obtained. The average particle diameter of the obtained liposome was measured using a particle diameter measuring apparatus to confirm that the average particle diameter was within the range from 30 nm to 100 nm. In the obtained dispersion liquid of liposome, the f7 siRNA solution was mixed at a ratio of the dispersion liquid of liposome to the fl siRNA solution of 3:1, and then, distilled water that was three times the amount was added thereto and mixed therewith, whereby a dispersion liquid of Compound A-1/PEG-DMPE Na/f7 siRNA complex was prepared.
The average particle diameter of the preparation (composition) was measured using a particle diameter measurement device.

[3] = compound/PEG-DMPE Na/DSPC/cholesterol=7.030/0.755/2.038/4.892 mmol/L, Example 54
[4] = liposome/siRNA complex encapsulated by lipid membrane, Examples 52, 53 / Comparative Example 3
[5] = compound/PEG-DMPE Na/DSPC/cholesterol, Examples 50, 51 / Comparative Example 2

Row | Compound | Particle diameter of Preparation obtained [2, 4] | Particle diameter of Preparation obtained [2, 5] | further results
1 | CCCCCC/C=C\CCCCCCCCN(CCCCCCCC/C=C\CCCCCC)C(=O)OCCCN(C)C [Compound A-3, 3-(Dimethylamino)propyl di(Z)-hexadec-9-enyl) carbamate] | – | – | Particle diameter of Preparation obtained [1]: 150.0 nm
2 | CCCCC/C=C\C/C=C\CCCCCCCCN(CCCCCCCC/C=C\C/C=C\CCCCC)C(=O)CCCCN(C)C [Compound XI-2, 5-(Dimethylamino)-N,N-di((9Z,12Z)-octadeca-9,12-dienyl)pentanamide] | – | – | expression of the apo-b gene mRNA (apo-b gene mRNA): did not suppress the expression of the apo-b gene mRNA
3 | CCCCC/C=C\C/C=C\CCCCCCCCN(CCCCCCCC/C=C\C/C=C\CCCCC)C(=O)OCCCN1CCCCC1 [Compound A-7, 3-(Piperidin-1-yl)propyl di((9Z,12Z)-octadeca-9,12-dienyl)carbamate] | 94.6 nm | – | Particle diameter of Preparation obtained [2, 3]: 123.3 nm
4 | CCCCC/C=C\C/C=C\CCCCCCCCOCCN(CCCCCCCC/C=C\C/C=C\CCCCC)C(=O)OCCCN1CCCCCC1 [Compound A-31, 3-(Azepan-1-yl)propyl ((9Z,12Z)-octadeca-9,12-dienyl) (2-((9Z,12Z)-octadeca-9,12-dienyloxy)ethyl)carbamate] | 102.2 nm | 139.1 nm | –
5 | CCCCC/C=C\C/C=C\CCCCCCCCO[C@@H]1CN(CCCO)C[C@H]1OCCCCCCCC/C=C\C/C=C\CCCCC [Compound XI-8, 3-((3R,4R)-3,4-Bis((9Z,12Z)-octadeca-9,12-dienyloxy)pyrrolidin-1-yl)propan-1-ol, reference compound] | – | 128.0 nm | –
6 | CCCCC/C=C\C/C=C\CCCCCCCCN(CCCCCCCC/C=C\C/C=C\CCCCC)C(=O)OCC1CCCN1C (stereo not drawn) [Compound A-21, (1-Methylpyrrolidin-2-yl)methyl di((9Z,12Z)-octadeca-9,12-dien-1-yl)carbamate] | 104.8 nm | 141.0 nm | –
7 | CCCCC/C=C\C/C=C\CCCCCCCCN(CCCCCCCCCC)C(=O)OCCCN(C)C [Compound A-10, 3-(Dimethylamino)propyl decyl((9Z,12Z)-octadeca-9,12-dienyl)carbamate] | 123.1 nm | 148.7 nm | Particle diameter of Preparation obtained [2, 3]: 156.2 nm
